# Source: patent EP0971739B1 (priority 1997, dated 1998)
# Test system: tetanus toxoid
# Parameters: species or system ICR mice
# Conditions: mouse, in vivo
structure (smiles),measurement,value
"CCCCCCCCCCCCCCCC(=O)OC[C@H](COP(=O)([O-])OCC[N+](C)(C)C)OC(=O)CCCCCCCCCCCCCCC [DPPC, 1,2-Dipalmitoyl-sn-glycero-3-phosphocholine]",Anti-Tetanus Toxoid Titer^-1 Fecal Extract d7P2° IgA,<50
same,Anti-Tetanus Toxoid Titer^-1 Fecal Extract d7P2° IgG,<50
same,Anti-Tetanus Toxoid Titers^-1 IgG1,"25,600"
same,Anti-Tetanus Toxoid Titers^-1 IgG2a,"1,600"
same,Anti-Tetanus Toxoid Titers^-1 IgG2b,"3,200"
same,Serum Anti-Tetanus Toxoid Titer^-1 IgA-Specific d10P2°,100
same,Serum Anti-Tetanus Toxoid Titer^-1 IgA-Specific d10P3°,200
same,Serum Anti-Tetanus Toxoid Titer^-1 IgG-Specific d10P2°,"6,400"
same,Serum Anti-Tetanus Toxoid Titer^-1 IgG-Specific d10P3°,"6,400"
